± gives the uncertainty stated by the source.
Experiment: xn = mol fraction of the nth substance listed

CC(=O)CC(C)C + CCCCCO
viscosity [mPa·s]
Conditions | x1 = 0.1011 | x1 = 0.1974 | x1 = 0.304 | x1 = 0.4023 | x1 = 0.5022 | x1 = 0.6064 | x1 = 0.7079 | x1 = 0.7955 | x1 = 0.8962
298.15 K, 101 kPa | 2.47 ± 0.03 | 1.89 ± 0.02 | 1.46 ± 0.02 | 1.2 ± 0.02 | 1 ± 0.01 | 0.856 ± 0.011 | 0.738 ± 0.009 | 0.668 ± 0.008 | 0.592 ± 0.008
298.15 K, 101.3 kPa | 2.47 ± 0.068 | 1.89 ± 0.052 | 1.46 ± 0.04 | 1.2 ± 0.033 | 1 ± 0.028 | 0.856 ± 0.024 | 0.738 ± 0.02 | 0.668 ± 0.018 | 0.592 ± 0.016
303.15 K, 101.3 kPa | 2.2 ± 0.06 | 1.7 ± 0.047 | 1.32 ± 0.036 | 1.1 ± 0.03 | 0.919 ± 0.025 | 0.792 ± 0.022 | 0.694 ± 0.019 | 0.624 ± 0.017 | 0.558 ± 0.015
308.15 K, 101.3 kPa | 1.96 ± 0.054 | 1.53 ± 0.042 | 1.2 ± 0.033 | 1.01 ± 0.028 | 0.846 ± 0.023 | 0.735 ± 0.02 | 0.646 ± 0.018 | 0.589 ± 0.016 | 0.53 ± 0.015
313.15 K, 101.3 kPa | 1.75 ± 0.048 | 1.38 ± 0.038 | 1.09 ± 0.03 | 0.915 ± 0.025 | 0.781 ± 0.022 | 0.683 ± 0.019 | 0.601 ± 0.017 | 0.555 ± 0.015 | 0.501 ± 0.014

OCCOCCOCCOCCOCCOCCOCCOCCO + O
viscosity [mPa·s], 100 kPa
Conditions | 293.15 K | 298.15 K | 303.15 K | 308.15 K | 313.15 K | 318.15 K | 323.15 K
x2 = 0.042 | 108.4 ± 4.3 | 81.84 ± 2.2 | 63.33 ± 1.5 | 50.05 ± 0.84 | 40.2 ± 0.6 | 32.83 ± 0.43 | 27.17 ± 0.32
x2 = 0.111 | 107.4 ± 4.3 | 81.02 ± 2.2 | 62.63 ± 1.5 | 49.38 ± 0.9 | 39.67 ± 0.59 | 32.32 ± 0.43 | 26.74 ± 0.32
x2 = 0.267 | 103 ± 6.1 | 77.64 ± 6.1 | 60.34 ± 4.7 | 47.5 ± 3.5 | 38.03 ± 2.7 | 30.97 ± 2 | 25.55 ± 1.6
x2 = 0.294 | 98.4 ± 6.3 | 74.46 ± 2.1 | 57.33 ± 2 | 45.14 ± 1.6 | 36.19 ± 1.3 | 29.5 ± 1.1 | 24.36 ± 0.89

CCCCCCO + c1ccccc1
Conditions | viscosity [mPa·s]
293.15 K, 100 kPa, x2 = 0.0814 | 4.394 ± 0.22
293.15 K, 100 kPa, x2 = 0.1623 | 3.612 ± 0.18
293.15 K, 100 kPa, x2 = 0.2401 | 3.045 ± 0.15
293.15 K, 100 kPa, x2 = 0.3536 | 2.371 ± 0.12
293.15 K, 100 kPa, x2 = 0.4411 | 1.932 ± 0.098
293.15 K, 100 kPa, x2 = 0.5516 | 1.507 ± 0.076
293.15 K, 100 kPa, x2 = 0.6465 | 1.218 ± 0.062
293.15 K, 100 kPa, x2 = 0.7441 | 0.979 ± 0.05
293.15 K, 100 kPa, x2 = 0.8425 | 0.828 ± 0.042
293.15 K, 100 kPa, x2 = 0.9324 | 0.728 ± 0.037
298.15 K, 101 kPa, x1 = 0.04 | 0.615 ± 0.016
298.15 K, 101 kPa, x1 = 0.078 | 0.633 ± 0.017
298.15 K, 101 kPa, x1 = 0.12 | 0.663 ± 0.018
298.15 K, 101 kPa, x1 = 0.16 | 0.709 ± 0.019
298.15 K, 101 kPa, x1 = 0.34 | 0.98 ± 0.026
298.15 K, 101 kPa, x1 = 0.43 | 1.195 ± 0.031
298.15 K, 101 kPa, x1 = 0.53 | 1.505 ± 0.039
298.15 K, 101 kPa, x1 = 0.75 | 2.444 ± 0.064
303 K, 101.33 kPa, x1 = 0.1001 | 0.6115 ± 0.016
303 K, 101.33 kPa, x1 = 0.2002 | 0.7018 ± 0.017
303 K, 101.33 kPa, x1 = 0.3 | 0.8271 ± 0.019
303 K, 101.33 kPa, x1 = 0.4002 | 0.9916 ± 0.022
303 K, 101.33 kPa, x1 = 0.5004 | 1.198 ± 0.026
303 K, 101.33 kPa, x1 = 0.6012 | 1.498 ± 0.033
303 K, 101.33 kPa, x1 = 0.6985 | 1.883 ± 0.043
303 K, 101.33 kPa, x1 = 0.8 | 2.387 ± 0.059
303 K, 101.33 kPa, x1 = 0.8982 | 2.971 ± 0.079
303.15 K, 100 kPa, x2 = 0.0814 | 3.292 ± 0.17
303.15 K, 100 kPa, x2 = 0.1623 | 2.773 ± 0.14
303.15 K, 100 kPa, x2 = 0.2401 | 2.333 ± 0.12
303.15 K, 100 kPa, x2 = 0.3536 | 1.832 ± 0.093
303.15 K, 100 kPa, x2 = 0.4411 | 1.514 ± 0.077
303.15 K, 100 kPa, x2 = 0.5516 | 1.175 ± 0.06
303.15 K, 100 kPa, x2 = 0.6465 | 0.951 ± 0.048
303.15 K, 100 kPa, x2 = 0.7441 | 0.797 ± 0.041
303.15 K, 100 kPa, x2 = 0.8425 | 0.684 ± 0.035
303.15 K, 100 kPa, x2 = 0.9324 | 0.604 ± 0.031
313 K, 101.33 kPa, x1 = 0.1001 | 0.5329 ± 0.015
313 K, 101.33 kPa, x1 = 0.2002 | 0.6064 ± 0.016
313 K, 101.33 kPa, x1 = 0.3 | 0.7078 ± 0.017
313 K, 101.33 kPa, x1 = 0.4002 | 0.8581 ± 0.019
313 K, 101.33 kPa, x1 = 0.5004 | 0.9873 ± 0.021
313 K, 101.33 kPa, x1 = 0.6012 | 1.194 ± 0.025
313 K, 101.33 kPa, x1 = 0.6985 | 1.49 ± 0.032
313 K, 101.33 kPa, x1 = 0.8 | 1.852 ± 0.041
313 K, 101.33 kPa, x1 = 0.8982 | 2.274 ± 0.052
313.15 K, 100 kPa, x2 = 0.0814 | 2.463 ± 0.12
313.15 K, 100 kPa, x2 = 0.1623 | 2.077 ± 0.11
313.15 K, 100 kPa, x2 = 0.2401 | 1.772 ± 0.089
313.15 K, 100 kPa, x2 = 0.3536 | 1.428 ± 0.072
313.15 K, 100 kPa, x2 = 0.4411 | 1.201 ± 0.061
313.15 K, 100 kPa, x2 = 0.5516 | 0.954 ± 0.048
313.15 K, 100 kPa, x2 = 0.6465 | 0.789 ± 0.04
313.15 K, 100 kPa, x2 = 0.7441 | 0.661 ± 0.034
313.15 K, 100 kPa, x2 = 0.8425 | 0.581 ± 0.03
313.15 K, 100 kPa, x2 = 0.9324 | 0.525 ± 0.027
323 K, 101.33 kPa, x1 = 0.1001 | 0.4717 ± 0.014
323 K, 101.33 kPa, x1 = 0.2002 | 0.53 ± 0.015
323 K, 101.33 kPa, x1 = 0.3 | 0.613 ± 0.015
323 K, 101.33 kPa, x1 = 0.4002 | 0.7007 ± 0.017
323 K, 101.33 kPa, x1 = 0.5004 | 0.8259 ± 0.018
323 K, 101.33 kPa, x1 = 0.6012 | 0.9863 ± 0.021
323 K, 101.33 kPa, x1 = 0.6985 | 1.209 ± 0.025
323 K, 101.33 kPa, x1 = 0.8 | 1.467 ± 0.03
323 K, 101.33 kPa, x1 = 0.8982 | 1.768 ± 0.037
323.15 K, 100 kPa, x2 = 0.0814 | 1.934 ± 0.098
323.15 K, 100 kPa, x2 = 0.1623 | 1.654 ± 0.084
323.15 K, 100 kPa, x2 = 0.2401 | 1.411 ± 0.071
323.15 K, 100 kPa, x2 = 0.3536 | 1.135 ± 0.057
323.15 K, 100 kPa, x2 = 0.4411 | 0.962 ± 0.049
323.15 K, 100 kPa, x2 = 0.5516 | 0.781 ± 0.04
323.15 K, 100 kPa, x2 = 0.6465 | 0.656 ± 0.033
323.15 K, 100 kPa, x2 = 0.7441 | 0.568 ± 0.029
323.15 K, 100 kPa, x2 = 0.8425 | 0.5 ± 0.026
323.15 K, 100 kPa, x2 = 0.9324 | 0.458 ± 0.024

CCC(C)N (stereo not given) + O
viscosity [mPa·s], 101.33 kPa
Conditions | x1 = 0.1 | x1 = 0.1999 | x1 = 0.3 | x1 = 0.3998 | x1 = 0.4994 | x1 = 0.5999 | x1 = 0.6998 | x1 = 0.7997 | x1 = 0.8999
298.15 K | 2.276 ± 0.014 | 2.556 ± 0.015 | 2.232 ± 0.014 | 1.774 ± 0.011 | 1.322 ± 0.0092 | 0.9973 ± 0.0072 | 0.7605 ± 0.0058 | 0.5992 ± 0.0049 | 0.4885 ± 0.0042
303.15 K | 1.937 ± 0.012 | 2.173 ± 0.013 | 1.917 ± 0.012 | 1.538 ± 0.01 | 1.165 ± 0.0081 | 0.8899 ± 0.0065 | 0.6906 ± 0.0053 | 0.552 ± 0.0045 | 0.4543 ± 0.004
308.15 K | 1.669 ± 0.01 | 1.865 ± 0.011 | 1.659 ± 0.01 | 1.341 ± 0.0089 | 1.033 ± 0.0073 | 0.8024 ± 0.0059 | 0.6317 ± 0.0049 | 0.5102 ± 0.0043 | 0.4248 ± 0.0038
313.15 K | 1.453 ± 0.009 | 1.616 ± 0.01 | 1.443 ± 0.0092 | 1.18 ± 0.0079 | 0.921 ± 0.0065 | 0.7245 ± 0.0054 | 0.5794 ± 0.0046 | 0.4736 ± 0.004 | 0.3983 ± 0.0036
318.15 K | 1.275 ± 0.008 | 1.417 ± 0.0089 | 1.269 ± 0.0082 | 1.047 ± 0.0071 | 0.8266 ± 0.0059 | 0.6602 ± 0.005 | 0.534 ± 0.0043 | 0.4409 ± 0.0038 | 0.3744 ± 0.0034
323.15 K | 1.138 ± 0.0072 | 1.25 ± 0.0082 | 1.123 ± 0.0074 | 0.9361 ± 0.0064 | 0.7467 ± 0.0054 | 0.61 ± 0.0047 | 0.4935 ± 0.004 | 0.4113 ± 0.0036 | 0.3528 ± 0.0033

O=C1CCCCC1 + CC(C)CO
298.15 K, 101 kPa
Conditions | viscosity [mPa·s]
x1 = 0.1012 | 2.58 ± 0.03
x1 = 0.2016 | 2.15 ± 0.03
x1 = 0.299 | 1.9 ± 0.02
x1 = 0.3994 | 1.77 ± 0.02
x1 = 0.5008 | 1.72 ± 0.02
x1 = 0.5978 | 1.7 ± 0.02
x1 = 0.6982 | 1.69 ± 0.02
x1 = 0.7981 | 1.71 ± 0.02
x1 = 0.8985 | 1.77 ± 0.02

O=C1CCCCC1 + CCCCCCCO
298.15 K, 101 kPa
Conditions | viscosity [mPa·s]
x2 = 0.1013 | 1.965 ± 0.016
x2 = 0.1998 | 2.034 ± 0.017
x2 = 0.3029 | 2.16 ± 0.018
x2 = 0.4029 | 2.351 ± 0.02
x2 = 0.4994 | 2.584 ± 0.022
x2 = 0.5977 | 2.914 ± 0.025
x2 = 0.6971 | 3.335 ± 0.028
x2 = 0.8008 | 3.921 ± 0.034
x2 = 0.8949 | 4.663 ± 0.039
